The record followed here is ChEMBL document CHEMBL1777711, “Synthesis and bioactivity of new Finasteride conjugate” (Bioorg Med Chem Lett, 2011).

The source made the active and inactive calls. No cut-off for these calls is given here.

Series [1] deals with Rattus norvegicus. In words: Inhibition of testosterone propionate-induced castrated Wistar rat benign prostatic hyperplasia model assessed as prostate gland arrangement order at 10 mg/kg, iv by histochemistry. In kind it is functional, organism-based. Also on record: dose 10 mg/kg. Particulars: Wister.
Series [2] relates to Rattus norvegicus. In words: Inhibition of testosterone propionate-induced castrated Wistar rat benign prostatic hyperplasia model assessed as decrease in prostate weight at 50 mg/kg, iv for 14 days. On the set-up: dose 50 mg/kg. The conditions noted are these: Wister, Prostate gland. In kind it is functional, organism-based.
Series [3] relates to Rattus norvegicus. In words: Inhibition of testosterone propionate-induced castrated Wistar rat benign prostatic hyperplasia model assessed as decrease in seminal vesicles weight at 2 mg/kg, iv for 14 days. Particulars: Wister. In kind it is functional, organism-based. Also on record: dose 2 mg/kg.
In series [4] the test system is Rattus norvegicus. Put plainly: Inhibition of testosterone propionate-induced castrated Wistar rat benign prostatic hyperplasia model assessed as decrease in seminal vesicles weight at 10 mg/kg, iv for 14 days. The conditions noted are these: Wister. On the set-up: dose 10 mg/kg. Type of series: functional, organism-based.
Series [5] concerns Rattus norvegicus. Put plainly: Inhibition of testosterone propionate-induced castrated Wistar rat benign prostatic hyperplasia model assessed as decrease in epithelial protrusions at 10 mg/kg, iv by histochemistry. In kind it is functional, organism-based. On the set-up: dose 10 mg/kg. The conditions noted are these: Wister.
In series [6] the test system is Rattus norvegicus. In words: Inhibition of testosterone propionate-induced castrated Wistar rat benign prostatic hyperplasia model assessed as decrease in pseudostratified epithelia at 10 mg/kg, iv by histochemistry. On the set-up: dose 10 mg/kg. Type of series: functional, organism-based. Particulars: Wister.
Series [7] deals with T1, 3-oxo-5-alpha-steroid 4-dehydrogenase 2 (Rattus norvegicus, UniProt P31214).
T1 sequence (P31214 whole entry): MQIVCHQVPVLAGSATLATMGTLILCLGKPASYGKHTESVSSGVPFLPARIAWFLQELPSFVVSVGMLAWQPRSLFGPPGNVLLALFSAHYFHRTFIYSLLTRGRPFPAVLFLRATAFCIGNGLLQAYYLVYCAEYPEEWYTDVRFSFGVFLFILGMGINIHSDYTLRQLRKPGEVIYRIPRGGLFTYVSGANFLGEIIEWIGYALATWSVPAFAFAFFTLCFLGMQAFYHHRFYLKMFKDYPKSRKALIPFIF
Put plainly: Inhibition of rat 5-alpha-reductase type 2 by Lineweaver-Burk plot.

Series [8] deals with Rattus norvegicus. In words: Toxicity in testosterone propionate-induced castrated Wistar rat benign prostatic hyperplasia model assessed as vital signs at 10 mg/kg, iv […]. Particulars: in vivo. Also on record: dose 10 mg/kg, route intravenous. Type of series: organism-based, Wister.
In series [9] the test system is Rattus norvegicus. Put plainly: Toxicity in testosterone propionate-induced castrated Wistar rat benign prostatic hyperplasia model assessed as body weight at 2 to 50 mg/kg, iv for 14 days. On the set-up: dose 2-50 mg/kg, route intravenous. In kind it is organism-based, Wister. Particulars: in vivo, 336 h.
Series [10] concerns Rattus norvegicus. In words: Inhibition of testosterone propionate-induced castrated Wistar rat benign prostatic hyperplasia model assessed as decrease in hyperplasia of interstitial tissues at 10 mg/kg, iv by histochemistry. In kind it is functional, organism-based. Particulars: Wister. On the set-up: dose 10 mg/kg.
For series [11], the system named is Rattus norvegicus. Put plainly: Inhibition of testosterone propionate-induced castrated Wistar rat benign prostatic hyperplasia model assessed as decrease in prostate weight at 10 mg/kg, iv for 14 days. Type of series: functional, organism-based. On the set-up: dose 10 mg/kg. The conditions noted are these: Wister, Prostate gland.
Series [12] has as its system Rattus norvegicus. In words: Inhibition of testosterone propionate-induced castrated Wistar rat benign prostatic hyperplasia model assessed as decrease in prostate weight at 2 mg/kg, iv for 14 days. In kind it is functional, organism-based. The conditions noted are these: Wister, Prostate gland. Also on record: dose 2 mg/kg.
Series [13] relates to Rattus norvegicus. Put plainly: Inhibition of testosterone propionate-induced castrated Wistar rat benign prostatic hyperplasia model assessed as decrease in seminal vesicles weight at 50 mg/kg, iv for 14 days. In kind it is functional, organism-based. On the set-up: dose 50 mg/kg. The conditions noted are these: Wister.

As to `CC(C)(C)N(C(=O)C1CSCN1C(=O)C1CCC(=O)N1)C(=O)[C@H]1CC[C@H]2[C@@H]3CC[C@H]4NC(=O)C=C[C@]4(C)[C@H]3CC[C@]12C` (stereo partly specified), the inhibition entry with Rattus norvegicus [1], with Rattus norvegicus [2], with Rattus norvegicus [3], with Rattus norvegicus [4], with Rattus norvegicus [5] and in the series with Rattus norvegicus [6] was “Active” in each case. The inhibition result with Rattus norvegicus [10], with Rattus norvegicus [11], in the series with Rattus norvegicus [12] and in the series on Rattus norvegicus [13] was “Active” throughout. For the same compound, the concentration for half-maximal inhibition (IC50) in [7] was 0.088 µM. Further, the Activity result in the series with Rattus norvegicus [8] and with Rattus norvegicus [9] was “Non-toxic” each time.

On to `CC(C)(C)NC(=O)[C@H]1CC[C@H]2[C@@H]3CC[C@H]4NC(=O)C=C[C@]4(C)[C@H]3CC[C@]12C` [FINASTERIDE], for which the inhibition result with Rattus norvegicus [1], in the series on Rattus norvegicus [4], in the series on Rattus norvegicus [5], in the series on Rattus norvegicus [6], with Rattus norvegicus [10] and in the series with Rattus norvegicus [11] was “Active” in each case. Further, the half-inhibitory concentration (IC50) in [7] was found to be 0.147 µM. Moreover, in the series with Rattus norvegicus [9], the Activity entry is on record as “Non-toxic”.

One may read the IC50 as the concentration at which inhibition is half-maximal. Lower therefore signals inhibition by little substance.
